Assays:
TAS2R46 = target: T1, TAS2R46 (Homo sapiens, UniProt P59540); test: Fluo-4 calcium assay, HEK293T/Gα16-gustducin44 cells transiently expressing TAS2R46; type: cell-based
T1 construct: The full length gene of human TAS2R44 was amplified by polymerase chain reaction (PCR) using gene-specific primers that span the entire coding region; RSS tag (first 45 amino acids of rat somatostatin receptor subtype 3) (N); expressed in transfected cells; host or cells: HEK293T/Gα16-gustducin 44 cells, transient transfection
T1 sequence (P59540 1-309): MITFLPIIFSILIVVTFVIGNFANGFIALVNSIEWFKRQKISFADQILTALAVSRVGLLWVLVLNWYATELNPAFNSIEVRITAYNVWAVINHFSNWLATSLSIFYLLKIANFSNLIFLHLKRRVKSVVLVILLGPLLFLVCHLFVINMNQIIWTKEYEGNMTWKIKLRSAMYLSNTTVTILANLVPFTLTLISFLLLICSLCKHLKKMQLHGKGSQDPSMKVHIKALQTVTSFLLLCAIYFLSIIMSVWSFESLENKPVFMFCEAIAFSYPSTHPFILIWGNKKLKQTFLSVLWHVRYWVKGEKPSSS
Experimental: On day 0, the HEK293T/Gα16-gustducin 44 cells are plated in 96-well black wall, clear-bottom plates at a density of 14,000 cells per well and grown overnight in growth media (DMEM with 10% (v/v) heat-inactivated fetal bovine serum, 2 mM L-glutamine, 100 units/ml penicillin, 100 μg/ml streptomycin).
On day 1, the media is changed to an antibiotic-free and serum-free DMEM.
The cells are transfected with Lipofectamine 2000 (Invitorgen) according to the manufacturers recommendations.
Per well of a 96-well plate, 150 ng of vector DNA (SABTR expression vectors or TAS2R16 expression vector from example 1) is diluted in 12.5 μl of DMEM. In a second tube, 0.3 μl of Lipofectamine 2000 is diluted in 12.5 μl of DMEM and incubated for 5 min at room temperature. After the 5 min, both solutions are mixed and incubated for 20 min at RT. The growth medium in the plate is exchanged by 50 μl of DMEM and 25 μl of the lipofectamine/DNA mixture is incubated on the cells for 3-4 hours at 37° in a humidified atmosphere. This mixture is then replaced with an antibiotic-free, serum-containing DMEM.
24 hours post transfection, the cells are used in the Fluo-4 Calcium Assay described in Example 3.
At day 0, the HEK293T cell line expressing Gα16-gustducin44 and a TAS2R bitter taste receptor formed as described in examples 2b or 2c was seeded in antibiotic-free growth medium (standard DMEM with 10% (v/v) heat-inactivated fetal bovine serum, 2 mM L-glutamine[…]) into black wall/clear bottom 96-well plates, coated with poly(ethylenimine) (0.005% v/v) at a concentration of 15,000 cells per well and incubated for 48 hours in humidified atmosphere (37° C., 5% CO2).
At the time of the assay, the growth medium was discarded and the cells were in humidified atmosphere (37° C., 5% CO2) for 1 hour with 50 μl of loading buffer consisting of 1.5 μM Fluo-4 AM and […] probenicid (Sigma-Aldrich, St. Louis, Mo., US) in DMEM.
Afterwards, the 96-well plate was washed 5 times with 100 μl of assay buffer (130 mM NaCl, 5 mM KCl, 10 mM HEPES, 2 mM CaCl2, and 5 mM dextrose, pH 7.4) per well, using an automated plate washer (BioTek). The plate was further incubated for 30 minutes at room temperature in the dark to allow for complete de-esterification of the Fluo-4. Afterwards the plate was washed 5 times with 100 μl of assay buffer per well, and reconstituted with 100 μl of assay buffer per well.
For assay reading, the plate was placed in a Fluorometric Imaging Plate Reader (FLIPR) (FLIPR-TETRA™, Molecular Devices, Sunnyvale, Calif., US), and receptor activation was initiated by addition of 100 μl of a twofold concentrated agonist stock solution (to give the desired agonist end concentration when added to the 100 microliter assay buffer volume), which was prepared in assay buffer.
Fluorescence was continuously monitored for 20 seconds to give a signal baseline (averaged to give F0) prior to agonist addition and for 120 seconds after agonist addition. The change in signal divided by F0 gives ΔF/F0 indicated in the table, with ΔF being the maximum signal occurring within the 120 seconds minus the minimum signal (occurring within the 120 seconds after agonist addition.
All data was collected from at least two independent experiments each carried out in triplicate.
The obtained calcium signals were corrected for the response of cells expressing only the G Protein α subunit (Gα16-gustducin44) and normalized to the fluorescence of cells prior to the stimulus using ΔF/F0 (Fmax−Fmin/F0).
The intracellular calcium response following addition of sucralose was determined in HK293T cell line stably expressing Gα16-gustducin44 and transiently expressing TAS2R46 formed as described in example 2b.

[1] = test system: bitter-sensitive panelists; test: Sensory evaluation of bitter blocking in sucralose solution (forced choice); type: in vivo, human; details: for perceived bitterness of sucralose, in words: 13 ppm in 3 mM sucralose solution
Experimental: The bitter blocking capability of test cpd A (13 ppm) in sucralose (3 mM) solution was evaluated. Twenty ml of each solution (sucralose or sucralose with test cpd A) was presented in random order to 15 bitter-sensitive panelists. In two replications, panelists were asked to select the solution they perceived as more bitter. A beta-binomial analysis was calculated from the forced-choice data to correct for overdispersion. Because panelists evaluated bitterness over 2 replications, the data was subjected to a beta-binomial d′ analysis to determine whether over-dispersion occurred. Not accounting for over-dispersion has the potential to underestimate the significance level at which a test is conducted and therefore lead to false-positive results. The analysis refuted overdispersion (gamma=0.00; p=0.109) and no adjustments were necessary.

Row | SMILES | calcium signaling in TAS2R46 cells, in words (TAS2R46) | TAS2R46 ΔF/F0 (TAS2R46; sucralose 0.3906 mM) | TAS2R46 ΔF/F0 (TAS2R46; sucralose 0.7813 mM) | TAS2R46 ΔF/F0 (TAS2R46; sucralose 1.5625 mM) | TAS2R46 ΔF/F0 (TAS2R46; sucralose 3.1250 mM) | TAS2R46 ΔF/F0 (TAS2R46; sucralose 6.2500 mM) | TAS2R46 ΔF/F0 (TAS2R46; sucralose 12.5000 mM) | TAS2R46 ΔF/F0 (TAS2R46; sucralose 25.0000 mM) | TAS2R46 ΔF/F0 (TAS2R46; sucralose 50.0000 mM) | TAS2R46 ΔF/F0 (TAS2R46; sucralose 100.0000 mM) | perceived bitterness of sucralose, in words [1] | perceived bitterness of sucralose, in words ([1]; listed as (E)-4-(2,2,3-trimethylcyclopent-3-enyl)but-2-enoic acid) | evaluations selecting the solution with test compound as less bitter than 3 mM sucralose solution ([1]; 13 ppm in 3 mM sucralose, 15 panelists, 2 replications, p<0.05) | d′ ([1]; 13 ppm in 3 mM sucralose, forced choice)
1 | OC[C@H]1O[C@H](O[C@]2(CCl)O[C@H](CCl)[C@@H](O)[C@@H]2O)[C@H](O)[C@@H](O)[C@H]1Cl [Sucralose, sucralose] | significant concentration-dependent increase in calcium signaling | 0.041 | 0.038 | 0.035 | 0.036 | 0.057 | 0.075 | 0.106 | 0.171 | 0.258 | – | – | – | –
2 | CC1=CCC(C/C=C/C(=O)O)C1(C)C (centres unmarked) [test cpd A, (E)-4-(2,2,3-trimethylcyclopent-3-enyl)but-2-enoic acid] | – | – | – | – | – | – | – | – | – | – | reduced the perceived bitterness | significantly reduce the bitter aftertaste of sucralose | 22 of 30 | 0.88±0.12
